In patent EP1586565A1, “Substituted polycyclic aryl and heteroaryl pyrazinones useful for selective inhibition of the coagulation cascade” (Pharmacia Corporation, priority 1999, dated 2000):

Key:
TF-VIIa = biological target: T1, TF-VIIa (Homo sapiens, UniProt P08709); assay: TF-VIIa Assay; assay type: biochemical; conditions: for IC50 or % Inhibition TF-VIIa (30 µM): % inhibition at 30 µM (cells with % or %@30, bare 0)
T1 construct: An extrinsic pathway is initiated by the conversion of coagulation factor VII to VIIa by Xa; purchased American Diagnostica, Greenwich CT; Soluble TF was made in house in E. coli
T1 sequence (P08709 213-466 limits assumed): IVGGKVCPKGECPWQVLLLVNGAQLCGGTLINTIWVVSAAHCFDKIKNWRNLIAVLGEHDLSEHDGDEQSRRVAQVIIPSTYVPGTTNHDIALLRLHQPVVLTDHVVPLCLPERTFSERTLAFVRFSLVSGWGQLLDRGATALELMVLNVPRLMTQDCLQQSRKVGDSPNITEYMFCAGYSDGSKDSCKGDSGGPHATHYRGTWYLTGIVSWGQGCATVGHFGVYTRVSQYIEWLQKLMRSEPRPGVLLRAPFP
T1 sequence (P08709 61-212 limits assumed): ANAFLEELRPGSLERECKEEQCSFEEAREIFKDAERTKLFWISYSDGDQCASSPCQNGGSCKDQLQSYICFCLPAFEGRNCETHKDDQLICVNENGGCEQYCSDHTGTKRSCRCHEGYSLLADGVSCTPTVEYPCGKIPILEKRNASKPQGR
T1 sequence (P13726 33-251 partner limits assumed): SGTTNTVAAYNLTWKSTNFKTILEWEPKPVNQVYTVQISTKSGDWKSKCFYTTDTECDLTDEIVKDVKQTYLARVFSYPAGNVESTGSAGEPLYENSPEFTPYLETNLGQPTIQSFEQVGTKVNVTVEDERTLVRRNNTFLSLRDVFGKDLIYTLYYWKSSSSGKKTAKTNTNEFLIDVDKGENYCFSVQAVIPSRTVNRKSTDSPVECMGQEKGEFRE

Human factor Xa = biological target: T2, Human factor Xa (Homo sapiens, UniProt P00742); assay: Xa Assay; assay type: biochemical; conditions: for IC50 or % Inhibition Factor Xa (30 µM): % inhibition at 30 µM (cells with % or %@30, bare 0)
T2 construct: leads from XII to XIIa to XIa to IXa and to the conversion of X to Xa; purchased Enzyme Research Laboratories, South Bend IN
T2 sequence (P00742 235-488 limits assumed): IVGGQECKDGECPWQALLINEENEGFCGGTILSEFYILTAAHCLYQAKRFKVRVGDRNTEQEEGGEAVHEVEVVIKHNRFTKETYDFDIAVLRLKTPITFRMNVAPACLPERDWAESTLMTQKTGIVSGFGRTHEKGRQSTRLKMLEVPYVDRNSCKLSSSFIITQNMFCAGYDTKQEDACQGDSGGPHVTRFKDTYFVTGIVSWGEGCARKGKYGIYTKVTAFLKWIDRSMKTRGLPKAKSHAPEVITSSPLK
T2 sequence (P00742 41-179 limits assumed): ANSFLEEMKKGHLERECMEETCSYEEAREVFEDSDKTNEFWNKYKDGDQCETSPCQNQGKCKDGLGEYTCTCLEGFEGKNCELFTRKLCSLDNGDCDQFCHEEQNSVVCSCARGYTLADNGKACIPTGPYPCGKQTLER

Row | Compound | IC50 or % Inhibition Factor Xa (30 µM) (Human factor Xa) | % Inhibition Factor Xa (100 µM) (Human factor Xa) | other results
1 | N=C(N)c1ccc(CNC(=O)Cn2c(-c3ccc(Cl)cc3)c(Cl)nc(NCc3ccncc3)c2=O)cc1 [1471-19] | 26% | – | IC50 or % Inhibition TF-VIIa (30 µM) (TF-VIIa): 33%
2 | N=C(N)c1ccc(CNC(=O)Cn2c(-c3ccc(Cl)cc3)c(Cl)nc(NCCN3CCOCC3)c2=O)cc1 [1471-20] | 34% | – | IC50 or % Inhibition TF-VIIa (30 µM) (TF-VIIa): 42%
3 | COc1ccc(-c2c(Cl)nc(NCc3ccccc3)c(=O)n2CC(=O)NCc2ccc(C(=N)N)cc2)cc1 [1471-33] | 22% | – | IC50 or % Inhibition TF-VIIa (30 µM) (TF-VIIa): 31%
4 | COc1ccc(-c2c(Cl)nc(NCc3ccncc3)c(=O)n2CC(=O)NCc2ccc(C(=N)N)cc2)cc1 [1471-35] | 22% | – | IC50 or % Inhibition TF-VIIa (30 µM) (TF-VIIa): 37%
5 | COc1ccc(-c2c(Cl)nc(NCCN3CCOCC3)c(=O)n2CC(=O)NCc2ccc(C(=N)N)cc2)cc1 [1471-36] | 6% | – | IC50 or % Inhibition TF-VIIa (30 µM) (TF-VIIa): 11%
6 | COc1ccc(-c2c(Cl)nc(NCCc3ccncc3)c(=O)n2CC(=O)NCc2ccc(C(=N)N)cc2)cc1 [1471-37] | 7% | – | IC50 or % Inhibition TF-VIIa (30 µM) (TF-VIIa): 39%
7 | COc1ccc(-c2c(Cl)nc(NCCc3cccnc3)c(=O)n2CC(=O)NCc2ccc(C(=N)N)cc2)cc1 [1471-40] | 11% | – | IC50 or % Inhibition TF-VIIa (30 µM) (TF-VIIa): 40%
8 | N=C(N)c1ccc(CNC(=O)Cn2c(-c3ccc4c(c3)OCO4)c(Cl)nc(NCCN3CCOCC3)c2=O)cc1 [1471-44] | 13% | – | IC50 or % Inhibition TF-VIIa (30 µM) (TF-VIIa): 34%
9 | CCc1c(Cl)nc(NCCc2cccc(Cl)c2)c(=O)n1CC(=O)NCc1ccc(C(=N)N)cc1 [1471-62] | 0% | – | IC50 or % Inhibition TF-VIIa (30 µM) (TF-VIIa): 4%
10 | N=C(N)c1ccc(CNC(=O)Cn2c(-c3ccccc3)c(Cl)nc(NC(Cc3ccccc3)c3ccccc3)c2=O)cc1 (stereo not shown) [1507-07] | – | – | IC50 or % Inhibition TF-VIIa (30 µM) (TF-VIIa): 25%
11 | N=C(N)c1ccc(CNC(=O)Cn2c(-c3ccccc3)c(Cl)nc(NCc3ccc(Cl)cc3Cl)c2=O)cc1 [1507-22] | – | – | IC50 or % Inhibition TF-VIIa (30 µM) (TF-VIIa): 45%
12 | N=C(N)c1ccc(CNC(=O)Cn2c(-c3ccccc3)c(Cl)nc(NCc3cccc4ccccc34)c2=O)cc1 [1507-28] | – | – | IC50 or % Inhibition TF-VIIa (30 µM) (TF-VIIa): 38%
13 | N=C(N)c1ccc(CNC(=O)Cn2c(-c3ccc(C(F)(F)F)cc3)c(Cl)nc(NC3CCC3)c2=O)cc1 [1515-20] | – | – | IC50 or % Inhibition TF-VIIa (30 µM) (TF-VIIa): 32%
14 | N=C(N)c1ccc(CNC(=O)Cn2c(-c3c(Cl)cccc3Cl)c(Cl)nc(NCCc3cccc(Cl)c3)c2=O)cc1 [1517-24] | 0% | – | –
15 | N=C(N)c1ccc(CNC(=O)Cn2c(-c3ccccc3)c(Cl)nc(NC3CCCCC3)c2=O)cc1 [1517-25] | 0% | – | –
16 | CCCC(CCC)Nc1nc(Cl)c(-c2ccccc2)n(CC(=O)NCc2ccc(C(=N)N)cc2)c1=O [1517-26] | 0% | – | –
17 | CC(C)N(C)c1nc(Cl)c(-c2ccccc2)n(CC(=O)NCc2ccc(C(=N)N)cc2)c1=O [1517-31] | 0% | – | –
18 | CCCNc1nc(Cl)c(-c2ccccc2)n(CC(=O)NCc2ccc(C(=N)N)cc2)c1=O [1517-33] | 0% | – | –
19 | C[Si](C)(C)CNc1nc(Cl)c(-c2ccccc2)n(CC(=O)NCc2ccc(C(=N)N)cc2)c1=O [1517-36] | 0% | – | –
20 | CC(C)CCNc1nc(Cl)c(-c2ccccc2)n(CC(=O)NCc2ccc(C(=N)N)cc2)c1=O [1517-40] | 0% | – | –

Row | Compound | IC50 or % Inhibition Factor Xa (30 µM) (Human factor Xa) | % Inhibition Factor Xa (100 µM) (Human factor Xa) | other results
21 | CC(C)(C)CCNc1nc(Cl)c(-c2ccccc2)n(CC(=O)NCc2ccc(C(=N)N)cc2)c1=O [1517-41] | 0% | – | –
22 | CCCCCNc1nc(Cl)c(-c2ccccc2)n(CC(=O)NCc2ccc(C(=N)N)cc2)c1=O [1517-48] | 0% | – | –
23 | N=C(N)c1ccc(CNC(=O)Cn2c(-c3ccccc3)c(Cl)nc(N3CCC3)c2=O)cc1 [1522-28] | – | – | IC50 (TF-VIIa; cells printed as bare numbers (IC50), read-out: IC50 or % Inhibition TF-VIIa (30 µM)): > 30 µM
24 | N=C(N)c1ccc(CNC(=O)Cn2c(Cc3ccccc3)c(Cl)nc(NCCc3ccccc3)c2=O)cc1 [Example 20] | 6%@30 | – | –
25 | N=C(N)c1ccc(CNC(=O)Cn2c(-c3ccc(-c4ccccc4)cc3)c(Cl)nc(NCCc3cccnc3)c2=O)cc1 [Example 21] | – | – | IC50 or % Inhibition TF-VIIa (30 µM) (TF-VIIa): 8%@30
26 | N=C(N)c1ccc(CNC(=O)Cn2c(-c3ccc(-c4ccccc4)cc3)c(Cl)nc(NCCc3ccc(Cl)cc3)c2=O)cc1 [Example 22] | – | – | IC50 or % Inhibition TF-VIIa (30 µM) (TF-VIIa): 0%@30
27 | N=C(N)NC/C=C\CNC(=O)Cn1c(-c2ccccc2)cnc(NCCc2ccccc2)c1=O [Example 37] | 0% | – | –
28 | Nc1n[nH]c2ccc(CNC(=O)Cn3c(-c4ccccc4)cnc(NCCc4ccccc4)c3=O)cc12 [Example 38] | 22% | – | –
29 | Nc1n[nH]c2cc(CNC(=O)Cn3c(-c4ccccc4)cnc(NCCc4ccccc4)c3=O)ccc12 [Example 39] | 0% | – | –
30 | N=C(N)c1ccc(CNC(=O)Cn2c(-c3cccc(N)c3)c(Cl)nc(NC3CCC3)c2=O)cc1F [Example 40] | 0% | – | –
31 | CC(C)Nc1nc(Cl)c(-c2cccc(N)c2)n(CC(=O)NCc2ccc(C(=N)N)c(F)c2)c1=O [Example 42] | 0% | – | –
32 | CC(C)Nc1ncc(-c2cccc(N)c2)n(CC(=O)NCc2ccc(C(=N)N)c(F)c2)c1=O [Example 43] | 0% | – | –
33 | CC(C)Nc1nc(Cl)c(-c2cccc(N)c2)n(CC(=O)NCCc2ccc(C(=N)N)cc2)c1=O [Example 62] | 10% | – | –
34 | COC(=O)c1cccc(-c2c(Cl)nc(NC(C)C)c(=O)n2CC(=O)NCc2ccc(C(=N)N)cc2)c1 [Example 64] | 19% | – | –
35 | CC(C)Nc1nc(Cl)c(-c2cccc(C(=O)O)c2)n(CC(=O)NCc2ccc(C(=N)N)cc2)c1=O [Example 65] | 12% | – | –
36 | N=C(N)c1ccc(CNC(=O)Cn2c(-c3ccccc3O)c(Cl)nc(NC3CCC3)c2=O)cc1 [Example 66] | 0% | – | –
37 | CC(C)Nc1nc(Cl)c(-c2cc(N)ccc2F)n(CC(=O)NCc2ccc(C(=N)N)cc2F)c1=O [compound 73] | 0% | – | –
38 | CC(C)Nc1nc(Cl)c(-c2ccc(Cl)nc2)n(CC(=O)NCc2ccc(C(=N)N)cc2F)c1=O [compound 74] | 13% | – | –
39 | CC(C)Nc1nc(Cl)c(-c2cccnc2)n(CC(=O)NCc2ccc(C(=N)N)cc2)c1=O [compound 75] | 9% | – | –
40 | CSc1ccc(N)cc1-c1c(Cl)nc(NC(C)C)c(=O)n1CC(=O)NCc1ccc(C(=N)N)cc1 [compound 76] | 0% | – | –

More lines, main results first:

Row | IC50 or % Inhibition Factor Xa (30 µM) (Human factor Xa) | % Inhibition Factor Xa (100 µM) (Human factor Xa) | Compound | other results
41 | – | 1% | O=C(Cn1c(-c2ccc(Cl)cc2)c(Cl)nc(NCCc2ccc(Cl)cc2)c1=O)NCCc1ccncc1 [Example E-0020] | –
42 | – | 0% | O=C(Cn1c(-c2ccc(Cl)cc2)c(Cl)nc(NCc2ccccc2)c1=O)NCCc1ccncc1 [Example E-0025] | –
43 | – | 0% | O=C(Cn1c(-c2ccc(Cl)cc2)c(Cl)nc(NCCc2cccc(Cl)c2)c1=O)NCCc1ccncc1 [Example E-0027] | –
44 | – | 0% | O=C(Cn1c(-c2ccc(Cl)cc2)c(Cl)nc(NCCc2ccc(Cl)cc2)c1=O)NCCc1ccncc1 [Example E-0028] | –
45 | – | 0% | O=C(Cn1c(-c2ccc(Cl)cc2)c(Cl)nc(NCCc2cccnc2)c1=O)NCCc1ccncc1 [Example E-0029] | –
46 | – | 0% | O=C(Cn1c(-c2ccc(Cl)cc2)c(Cl)nc(NCCN2CCOCC2)c1=O)NCCc1ccncc1 [Example E-0031] | –
47 | – | 0% | O=C(Cn1c(-c2ccc(Cl)cc2)c(Cl)nc(NCc2ccncc2)c1=O)NCCc1ccncc1 [Example E-0032] | –
48 | – | 0% | COc1ccc(-c2c(Cl)nc(NCCc3cccc(Cl)c3)c(=O)n2CC(=O)NCCc2ccncc2)cc1 [Example E-0035] | –
49 | – | 0% | O=C(Cn1c(-c2ccc(-c3ccccc3)cc2)c(Cl)nc(NCCc2ccccc2)c1=O)NCCc1ccncc1 [Example E-0050] | –
50 | – | 4% | O=C(Cn1c(-c2cccc(Cl)c2)c(Cl)nc(NCCc2cccc(Cl)c2)c1=O)NCCc1cccnc1 [Example E-0080] | –
51 | – | 3% | O=C(Cn1c(-c2cccc(Cl)c2)c(Cl)nc(NCCc2ccc(Cl)cc2)c1=O)NCCc1cccnc1 [Example E-0083] | –
52 | – | 0% | O=C(Cn1c(-c2cccc(Cl)c2)c(Cl)nc(NCc2ccccc2)c1=O)NCCc1ccncc1 [Example E-0085] | –
53 | – | 4% | O=C(Cn1c(-c2cccc(Cl)c2)c(Cl)nc(NCc2ccccc2)c1=O)NCCc1cccnc1 [Example E-0086] | –
54 | – | 4% | O=C(Cn1c(-c2cccc(Cl)c2)c(Cl)nc(NCCc2ccccc2)c1=O)NCCc1cccnc1 [Example E-0089] | –
55 | – | 3% | O=C(Cn1c(-c2cccc(Cl)c2)c(Cl)nc(NCCc2cccc(Cl)c2)c1=O)NCCc1cccnc1 [Example E-0092] | –
56 | – | 4% | O=C(Cn1c(-c2cccc(Cl)c2)c(Cl)nc(NCCc2ccc(Cl)cc2)c1=O)NCCc1cccnc1 [Example E-0095] | –
57 | – | 6% | COc1ccc(-c2c(Cl)nc(NCCc3ccccc3)c(=O)n2CC(=O)NCCc2ccncc2)cc1 [Example E-0100] | –
58 | – | 3% | COc1ccc(-c2c(Cl)nc(NCCc3cccc(Cl)c3)c(=O)n2CC(=O)NCCc2ccncc2)cc1 [Example E-0103] | –
59 | – | 3% | COc1ccc(-c2c(Cl)nc(NCCc3ccc(Cl)cc3)c(=O)n2CC(=O)NCCc2ccncc2)cc1 [Example E-0106] | –
60 | – | 3% | O=C(Cn1c(-c2ccc(-c3ccccc3)cc2)c(Cl)nc(NCc2ccccc2)c1=O)NCCc1ccncc1 [Example E-0109] | –
61 | – | 3% | O=C(Cn1c(-c2ccc(-c3ccccc3)cc2)c(Cl)nc(NCCc2ccc(Cl)cc2)c1=O)NCCc1ccncc1 [Example E-0118] | –
